Experimental data reported in US20170112732A1, “ENCAPSULATION OF ORAL CARE ACTIVE AGENTS” (KONINKLIJKE PHILIPS N.V., priority 2014, published 2017).
Structures can show the parent of a compound that is named as a salt.

Experiment: Determination of ethyl formate solubility in paraffin oil (GC-FID)
Type: physicochemical
Procedure: 12 mL of ethyl formate (0.917 g/cm^3) were added to 18 mL of liquid paraffin (density, 0.830 g/cm^3) in a glass bottle. The bottle was then closed with butyl rubber stopper and aluminium crimp seal and seal with a hand crimper before vigorously mixing the system with a vortex for 2 min. The bottle containing the mixture was immersed in a temperature-controlled jacketed beaker for 24 h and to allow the formation of two distinct layers, an upper layer consisting of ethyl formate and Liquid paraffin and the lower layer with only ethyl formate. Samples were withdrawn from the upper layer with a needle, filtered and analysed using a gas chromatography with flame ionisation detector (GC-FID) under the conditions presented in table 2. The quantity of ethyl formate in the mixture was inferred from the calibration curve obtained with different concentration of ethyl formate diluted with anhydrous ethanol.

Structure (SMILES): CCOC=O [Ethyl formate, ethyl formate]
- Ethyl formate solubility in liquid paraffin (5 ° C.): 13.4 % v/v
- Ethyl formate solubility in liquid paraffin (10 ° C.): 16.3 % v/v
- Ethyl formate solubility in liquid paraffin (20 ° C.): 26.8 % v/v
- Ethyl formate solubility in liquid paraffin (30 ° C.): 38.9 % v/v
